The values below come from publication PMC10874727, “The dual GGDEF/EAL domain enzyme PA0285 is a Pseudomonas species housekeeping phosphodiesterase regulating early attachment and biofilm architecture” (The Journal of Biological Chemistry, 2024).

The assay deals with T1, PA0285_317-760 (Pseudomonas aeruginosa, UniProt Q9I6K5).
T1 construct: gene PA0285; GGDEF/EAL tandem domains, residues 317-760 of 760; transmembrane and PAS domains absent; GST tag cleaved by thrombin; E. coli BL21(DE3); monomer (copies word: monomeric)
Kind of assay: HDX-MS. The class given is binding. To be noted: 2.5 mM GTP, 1 mM MgCl2, 1 mM MnCl2, pH 7.5, 25 °C; site: GGDEF domain; no diguanylate cyclase turnover.

T1 sequence (Q9I6K5 entry or part of it): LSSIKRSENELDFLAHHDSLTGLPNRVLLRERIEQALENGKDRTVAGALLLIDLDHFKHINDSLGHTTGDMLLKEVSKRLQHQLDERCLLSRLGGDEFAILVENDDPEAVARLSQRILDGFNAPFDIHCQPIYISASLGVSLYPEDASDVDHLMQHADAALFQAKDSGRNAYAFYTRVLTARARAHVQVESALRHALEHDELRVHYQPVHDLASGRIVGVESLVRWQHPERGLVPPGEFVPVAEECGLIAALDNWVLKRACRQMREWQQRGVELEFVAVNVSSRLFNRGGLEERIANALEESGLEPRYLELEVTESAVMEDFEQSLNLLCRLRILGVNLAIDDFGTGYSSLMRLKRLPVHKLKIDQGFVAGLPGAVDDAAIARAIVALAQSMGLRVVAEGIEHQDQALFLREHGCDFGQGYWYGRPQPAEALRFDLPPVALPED

Take `Nc1nc2c(ncn2[C@@H]2O[C@H](COP(=O)(O)OP(=O)(O)OP(=O)(O)O)[C@@H](O)[C@H]2O)c(=O)[nH]1` [GTP]: the HDX-MS entry is listed as “the neighboring helices exhibited reduced HDX, substantiating GTP binding”.
